{"source": "patent US6713950B2", "about": "“Low volatility slurry for emission mix powder” (General Electric Company, priority 2001, dated 2004)", "origin": "cited, not measured here", "test_system": "rats"}
{"substance": "polyethylene glycol 200 [PEG 200]", "values": [{"measurement": "oral LD50", "value": 28000, "unit": "mg/kg"}]}
